Measurements: patent US20120108557A1, “FLUOROQUINOLONE DERIVATIVES FOR OPHTHALMIC APPLICATIONS” (ALCON RESEARCH, LTD., priority 2008, published 2012)

How the values were obtained:
Experiment in all cases: In vitro antimicrobial activity, agar dilution MIC
Assay type in all cases: cell-based
Acinetobacter baumannii = conditions: test organism 26, Acinetobacter baumannii
Method: (§1) The activity of the compounds of the present invention was evaluated using an in vitro assay. Microorganisms were prepared from growth on agar media, in broth culture, or from thawed cryopreserved cultures. Fungal cultures were filtered to remove mycelial elements.
(§2) Using Mueller Hinton II Broth, 0.9% saline or other appropriate media, a suspension of each culture was prepared and adjusted to a turbidity equivalent to that of a 0.5 McFarland Standard. (Cultures adjusted to the 0.5 McFarland Standard generally contain approximately 1.0×10^8 CFU/mL). The adjusted suspension for each culture was diluted 1:10 in the appropriate media so that the inoculum concentration approximates 1.0×10^7 CFU/mL.
(§3) The antimicrobial agent to be tested was weighed and diluted with a volume of sterile distilled water calculated to yield the necessary starting concentration. Serial 1:2 dilutions of the antimicrobial agent in sterile distilled water were prepared (approximately 10-12 test concentrations comprise a reasonable experimental range). A known amount of each antimicrobial dilution was combined with an aliquot of agar medium calculated to yield the desired final antimicrobial test concentration and dispensed onto plates.
(§4) The amount of antimicrobial agent to be weighed was determined using the following equation: […]
(§5) Antimicrobial stock solutions were prepared at concentrations 5-10 times the highest concentration to be tested (routinely 1024 μg/mL). […] The stock solution was diluted to appropriate concentration using sterile water to form a working solution. The working solution was diluted two-fold, in sterile water, until the desired concentration is obtained.
(§6) Mueller Hinton II agar was prepared as described by the manufacturer. Mueller Hinton II agar may be supplemented with 5% defibrinated sheep blood for testing streptococci. Agar was added to the serially diluted antimicrobial solution in each container. The solutions were mixed thoroughly and poured into petri dishes (about 25 mL/plate). The pH of the agar at 25° C. should be between 7.2 and 7.4.
(§7) At least one inocula control plate was inoculated (agar medium without antimicrobial agent) from each seed plate before inoculating test plates. Test plates were inoculated starting at the lowest concentration and proceeding to the highest concentration. After all test plates were inoculated, an additional control plate (agar medium without antimicrobial agent) was inoculated. The plates were incubated in a non-CO2 incubator (or CO2 incubator depending on growth requirements); 18-24 hours at 32-35° C. was sufficient for most organisms.
(§8) All inoculation points on the agar surface were examined for the presence of growth as compared to the inoculum control plates. The results were summarized and use to determine Minimal Inhibitory Concentrations (MICs): The MIC is the lowest concentration of the antimicrobial agent which prevents visible growth of the organism (negative score).

Acinetobacter junii = tested on: Acinetobacter junii
Method: as §1, §2, §3, §4, §5, §6, §7, §8

[1] = tested on: Corynebacterium amycolatum
Method: as §1, §2, §3, §4, §5, §6, §7, §8

Enterobacter hormaechei = tested on: Enterobacter hormaechei
Method: as §1, §2, §3, §4, §5, §6, §7, §8

Enterococcus faecalis = tested on: Enterococcus faecalis
Method: as §1, §2, §3, §4, §5, §6, §7, §8

Escherichia coli = tested on: Escherichia coli
Method: as §1, §2, §3, §4, §5, §6, §7, §8

MRSA = tested on: MRSA
Method: as §1, §2, §3, §4, §5, §6, §7, §8

MRSE = tested on: MRSE
Method: as §1, §2, §3, §4, §5, §6, §7, §8

MSSA = conditions: test organism 6, MSSA
Method: as §1, §2, §3, §4, §5, §6, §7, §8

Morganella morganii = tested on: Morganella morganii
Method: as §1, §2, §3, §4, §5, §6, §7, §8

Pseudomonas aeruginosa = tested on: Pseudomonas aeruginosa
Method: as §1, §2, §3, §4, §5, §6, §7, §8

Serratia marcescens = tested on: Serratia marcescens
Method: as §1, §2, §3, §4, §5, §6, §7, §8

Staphylococcus aureus = tested on: Staphylococcus aureus
Method: as §1, §2, §3, §4, §5, §6, §7, §8

[2] = tested on: Staphylococcus epidermidis
Method: as §1, §2, §3, §4, §5, §6, §7, §8

[3] = tested on: Staphylococcus haemolyticus
Method: as §1, §2, §3, §4, §5, §6, §7, §8

[4] = tested on: Stenotrophomonas maltophilia
Method: as §1, §2, §3, §4, §5, §6, §7, §8

Streptococcus mitis = tested on: Streptococcus mitis
Method: as §1, §2, §3, §4, §5, §6, §7, §8

Streptococcus pneumoniae = tested on: Streptococcus pneumoniae
Method: as §1, §2, §3, §4, §5, §6, §7, §8

Measured: Minimal Inhibitory Concentration (MIC)

CN1CCCC2CN(c3cc4c(cc3F)c(=O)c(C(=O)O)cn4C3CC3)CC21 (stereo not drawn) [Compound 2]
0.25: Acinetobacter junii; test organism 28, Acinetobacter junii | Enterobacter hormaechei; test organism 30, Enterobacter hormaechei | Escherichia coli; test organism 32, Escherichia coli
0.5: Streptococcus mitis; test organism 22, Streptococcus mitis | Streptococcus pneumoniae; test organism 19, Streptococcus pneumoniae
2: Morganella morganii; test organism 36, Morganella morganii | [2]; test organism 7, Staphylococcus epidermidis | [4]; test organism 42, Stenotrophomonas maltophilia
0.125: Staphylococcus aureus; test organism 1, Staphylococcus aureus
≦0.25: Acinetobacter baumannii | Acinetobacter junii; test organism 27, Acinetobacter junii | Enterococcus faecalis; test organism 16, Enterococcus faecalis | Escherichia coli; test organism 33, Escherichia coli | Staphylococcus aureus; test organism 2, Staphylococcus aureus | Streptococcus mitis; test organism 21, Streptococcus mitis | Streptococcus pneumoniae; test organism 20, Streptococcus pneumoniae
>4: Acinetobacter junii; test organism 29, Acinetobacter junii | [1]; test organism 25, Corynebacterium amycolatum | Enterobacter hormaechei; test organism 31, Enterobacter hormaechei | Enterococcus faecalis; test organism 17, Enterococcus faecalis | Escherichia coli; test organism 34, Escherichia coli | MRSA; test organism 4, MRSA | MRSE; test organism 11, MRSE | MSSA | Pseudomonas aeruginosa; test organism 37, Pseudomonas aeruginosa | Pseudomonas aeruginosa; test organism 38, Pseudomonas aeruginosa | [3]; test organism 13, Staphylococcus haemolyticus | [3]; test organism 14, Staphylococcus haemolyticus | [4]; test organism 41, Stenotrophomonas maltophilia | Streptococcus mitis; test organism 23, Streptococcus mitis
>2: Enterococcus faecalis; test organism 18, Enterococcus faecalis | MRSA; test organism 3, MRSA | MRSA; test organism 5, MRSA | MRSE; test organism 9, MRSE | MRSE; test organism 10, MRSE | [2]; test organism 8, Staphylococcus epidermidis
4: Serratia marcescens; test organism 39, Serratia marcescens | Serratia marcescens; test organism 40, Serratia marcescens
1: Enterococcus faecalis; test organism 15, Enterococcus faecalis | Morganella morganii; test organism 35, Morganella morganii | [3]; test organism 12, Staphylococcus haemolyticus
≦0.03: [1]; test organism 24, Corynebacterium amycolatum
